4 compounds from ChEMBL document CHEMBL1201862, “PubChem BioAssay data set” (2004) can be followed below.

SMILES strings stand for the structures.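 Values below derive from 48-hour exposures of cells grown in 96-well plates, with endpoints linearly interpolated between the two concentrations bracketing the appropriate inhibition level. GI50 marks 50% less growth.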 Activity calls are given as the source filed them. No stated cut-off is given here; in the data, active = GI50 up to about 1.1 µM and inactive = higher.

Among the test systems are SN12C; U-251; CCRF-CEM; HT-29; NCI-H460; HCT-116; SK-MEL-28; K562; SNB-75; UACC-62; OVCAR-3; SW-620; SR; NCI-H522; CAKI-1; HOP-62; SF-295; SK-OV-3; SK-MEL-2; Malme-3M.
Common to all, as to assay: NCI-60 cell line screen, 48 h

As to `CC(=O)O[C@H]1CC[C@@]2(C)C(=CC[C@@H]3[C@@H]2CC[C@]2(C)c4c(C)nn(-c5ccccc5)c4C[C@@H]32)C1`, the GI50 is 33.3 µM (inactive) in the assay on SN12C; 20.7 µM (inactive) in the assay with U-251; 11.2 µM (inactive) in the assay with CCRF-CEM; 11.5 µM (inactive) with HT-29; 13.8 µM (inactive) in the assay on NCI-H460; 31 µM (inactive) in the assay on HCT-116. In addition, the GI50 with SK-MEL-28 was 25.5 µM (inactive); in the assay on K562 it was 2.65 µM (inactive); in the assay on SNB-75 it was 15.6 µM (inactive); with UACC-62, 18.5 µM (inactive); with OVCAR-3 it was 28.7 µM (inactive); with SW-620, 33.5 µM (inactive). Also, the GI50 with SR is 13 µM (inactive); in the assay on NCI-H522, 13.7 µM (inactive); with CAKI-1 it was 20.9 µM (inactive); with HOP-62, 15.5 µM (inactive); in the assay on SF-295, 3.55 µM (inactive); with SK-OV-3 it was 20.6 µM (inactive).

Consider `COC(=O)CN(CC1O[C@@H]2OC(C)(C)O[C@@H]2C1NC(C)=O)C(=O)OCc1ccccc1` (stereo partly drawn), for which the GI50 in the assay with SK-MEL-2, in the assay with SN12C, with U-251, in the assay on HT-29, in the assay on NCI-H460 and in the assay on HCT-116 was > 100 µM (inactive) in each case. The GI50 in the assay on SK-MEL-28, in the assay on K562, in the assay on SNB-75, in the assay with UACC-62, in the assay on OVCAR-3 and in the assay on SW-620 was > 100 µM (inactive) throughout. For the same compound, the GI50 in the assay on SR, with NCI-H522, in the assay on CAKI-1, in the assay with HOP-62, in the assay on SF-295 and in the assay with SK-OV-3 was > 100 µM (inactive) in each case.

For `COc1ccc(C2SCC(=O)N2NC(=O)C(C)Oc2ccc(Cl)cc2Cl)cc1` (stereo not drawn), the GI50 was 50.2 µM (inactive) in the assay on SK-MEL-2; 41.7 µM (inactive) in the assay with SN12C; 33.7 µM (inactive) with U-251; > 100 µM (inactive) with HT-29; 81.1 µM (inactive) with NCI-H460; 36.6 µM (inactive) with HCT-116. For the same compound, the GI50 in the assay on SK-MEL-28 is 30.9 µM (inactive); in the assay on K562, 27 µM (inactive); in the assay with SNB-75, 22 µM (inactive); in the assay on UACC-62, 33.9 µM (inactive); with OVCAR-3, 66.2 µM (inactive); with SW-620, > 100 µM (inactive). In addition, the GI50 in the assay with SR was < 0.01 µM (active); with NCI-H522, 91.2 µM (inactive); in the assay on CAKI-1, 21.8 µM (inactive); in the assay on HOP-62, 20.6 µM (inactive); in the assay with SF-295, 36.1 µM (inactive); in the assay with SK-OV-3 it was 49.2 µM (inactive).

In the case of `CCOC(=O)c1nn2c(nc1=O)sc1ccc3ccccc3c12`, the GI50 with SK-MEL-2 is > 100 µM (inactive); with SN12C it was > 100 µM (inactive); in the assay on U-251 it was > 100 µM (inactive); in the assay with CCRF-CEM it was 58.2 µM (inactive); with HT-29, > 100 µM (inactive); in the assay on NCI-H460, > 100 µM (inactive). For the same compound, the GI50 in the assay with HCT-116, in the assay with SK-MEL-28, in the assay with K562, with SNB-75, in the assay on UACC-62 and in the assay with OVCAR-3 was > 100 µM (inactive) throughout. The GI50 in the assay on SW-620, in the assay with SR, in the assay with Malme-3M, in the assay with CAKI-1, in the assay with HOP-62 and in the assay with SF-295 was > 100 µM (inactive) throughout. The GI50 with SK-OV-3 is > 100 µM (inactive).
